Source: PubChem BioAssay (NCI)
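Step 1: Grow cells in 96-well plates. Step 2: Expose to compound for 48 hours at 5 concentrations. Step 3: Interpolate endpoints linearly; if unreached, use highest concentration. At the GI50, growth is halved. TGI: total growth inhibition.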

Experiments:
Assay in all cases: DTP human tumour cell line panel, 48 h
SNB-75 CNS = system: SNB-75 CNS
MDA-MB-231 breast = system: MDA-MB-231 breast
M14 melanoma = system: M14 melanoma
OVCAR-4 ovarian = system: OVCAR-4 ovarian
SK-OV-3 ovarian = system: SK-OV-3 ovarian
MCF7 breast = system: MCF7 breast
HOP-62 NSCLC = system: HOP-62 NSCLC
NCI-H226 lung = system: NCI-H226 lung
A498 renal = system: A498 renal
KM12 colon = system: KM12 colon
NCI-H460 lung = system: NCI-H460 lung
PC-3 prostate = system: PC-3 prostate
OVCAR-3 ovarian = system: OVCAR-3 ovarian
SK-MEL-2 melanoma = system: SK-MEL-2 melanoma
K-562 leukemia = system: K-562 leukemia
HL-60(TB) leukemia = system: HL-60(TB) leukemia
786-0 renal = system: 786-0 renal
T-47D breast = system: T-47D breast
UO-31 renal = system: UO-31 renal
NCI/ADR-RES ovarian = system: NCI/ADR-RES ovarian
HT29 colon = system: HT29 colon
SN12C renal = system: SN12C renal
MOLT-4 leukemia = system: MOLT-4 leukemia
SNB-19 CNS = system: SNB-19 CNS
U251 CNS = system: U251 CNS
SK-MEL-5 melanoma = system: SK-MEL-5 melanoma
SW-620 colon = system: SW-620 colon

In the case of `COc1cccc(/C=C/C(=O)c2ccc(Cl)cc2Cl)c1OC`, the GI50 (SNB-75 CNS) is reported as 18 µM, the TGI (SNB-75 CNS) is reported as 33.8 µM and the GI50 (MDA-MB-231 breast) is reported as 12.3 µM. It also gave a TGI (MDA-MB-231 breast) of 27.8 µM, a GI50 (M14 melanoma) of 13.7 µM and a TGI (M14 melanoma) of 26.7 µM. The GI50 (OVCAR-4 ovarian) was 11.3 µM, the TGI (OVCAR-4 ovarian) was 34 µM and the GI50 (SK-OV-3 ovarian) was 15.4 µM. It also gave a TGI (SK-OV-3 ovarian) of 28.7 µM, a GI50 (MCF7 breast) of 4.52 µM and a TGI (MCF7 breast) of 32 µM. The GI50 (HOP-62 NSCLC) was 16.6 µM, the TGI (HOP-62 NSCLC) was 30.3 µM and the GI50 (NCI-H226 lung) was 9.96 µM. The TGI (NCI-H226 lung) was 29.6 µM, the GI50 (A498 renal) was 16.2 µM and the TGI (A498 renal) was 30.5 µM. The GI50 (KM12 colon) was 2.74 µM, the TGI (KM12 colon) was 13.1 µM and the GI50 (NCI-H460 lung) was 8.37 µM. It also gave a TGI (NCI-H460 lung) greater than 100 µM, a GI50 (PC-3 prostate) of 4.32 µM and a TGI (PC-3 prostate) of 17.1 µM. For the same compound, the GI50 (OVCAR-3 ovarian) was 7.38 µM, the TGI (OVCAR-3 ovarian) was 19.7 µM and the GI50 (SK-MEL-2 melanoma) was 4.58 µM. The TGI (SK-MEL-2 melanoma) was 17.4 µM, the GI50 (K-562 leukemia) was 2.39 µM and the TGI (K-562 leukemia) was 5.72 µM. For the same compound, the GI50 (HL-60(TB) leukemia) was 2.4 µM, the TGI (HL-60(TB) leukemia) was 5.85 µM and the GI50 (786-0 renal) was 10.3 µM. For the same compound, the TGI (786-0 renal) was 21.9 µM, the GI50 (T-47D breast) was 8.59 µM and the TGI (T-47D breast) was 25.5 µM. It also gave a GI50 (UO-31 renal) of 3.43 µM, a TGI (UO-31 renal) of 17.4 µM and a GI50 (NCI/ADR-RES ovarian) of 11.1 µM. The TGI (NCI/ADR-RES ovarian) was 25.2 µM, the GI50 (HT29 colon) was 5.04 µM and the TGI (HT29 colon) was 17.3 µM. For the same compound, the GI50 (SN12C renal) was 5.73 µM, the TGI (SN12C renal) was 19.9 µM and the GI50 (MOLT-4 leukemia) was 3.04 µM. For the same compound, the TGI (MOLT-4 leukemia) was 12.4 µM, the GI50 (SNB-19 CNS) was 4.15 µM and the TGI (SNB-19 CNS) was 14.9 µM. The GI50 (U251 CNS) was 6.19 µM, the TGI (U251 CNS) was 18.7 µM and the GI50 (SK-MEL-5 melanoma) was 13.3 µM. The TGI (SK-MEL-5 melanoma) was 28.1 µM, the GI50 (SW-620 colon) was 2.98 µM and the TGI (SW-620 colon) was 9.12 µM.
